From patent publication US5426099A, “Process for inducing analgesia, peptides and therapeutic compositions” (Rutgers, The State University of New Jersey, priority 1991, dated 1995)
Entries after “also recorded” stand apart in the source; their conditions may differ. Where no end group is shown, it is not given here.

Legend:
[1] = system: brain (amygdala); design: key: + = Stimulation; - = Inhibition; details: Quik+ 79; cited from earlier work
[2] = system: skin; design: key: + = Stimulation; - = Inhibition; details: Yanaihara+ 87; cited from earlier work
[3] = system: vagina; design: key: + = Stimulation; - = Inhibition; details: Fahrenkrug+ 88; cited from earlier work
[4] = system: kidney; design: key: + = Stimulation; - = Inhibition; details: Porter+ 88; cited from earlier work
[5] = system: Schwann cell; details: Evans+; cited from earlier work
[6] = system: pancreatic acini; design: key: + = Stimulation; - = Inhibition; details: Musso+ 88; cited from earlier work
[7] = system: brain (IV vent.); design: key: + = Stimulation; - = Inhibition; details: Drucker-Colin+ 88; cited from earlier work
[8] = design: key: + = Stimulation; - = Inhibition; details: Pandol+ 86; cited from earlier work
[9] = system: female Sprague-Dawley rats; test: Tail-flick latency to radiant heat
[10] = system: heart; design: key: + = Stimulation; - = Inhibition; details: Smitherman+ 88; cited from earlier work
[11] = system: periaqueductal gray matter; details: administered to rats directly into the periaqueductal gray matter; Sullivan and Pert 1981; cited from earlier work
[12] = system: stomach; details: Said, Mutt+ 77; cited from earlier work
[13] = system: brain arteries; details: Suzuki+ 84; cited from earlier work
[14] = system: trachea; details: Said, Mutt+ 77; cited from earlier work
[15] = system: dienceph. cells; design: key: + = Stimulation; - = Inhibition; details: Reichlin 88; cited from earlier work
[16] = system: arterial cells; design: key: + = Stimulation; - = Inhibition; details: Huang+ 84; cited from earlier work
[17] = system: gastric mucosa; design: key: + = Stimulation; - = Inhibition; details: Sutliff+ 86; cited from earlier work
[18] = system: systemic; design: key to cardiac output / blood pressure / arterial blood flow: + = Stimulation; - = Inhibition; details: Said, cited from earlier work
[19] = system: eye; design: key: + = Stimulation; - = Inhibition; details: cited from earlier work
[20] = system: mononuclear cells; design: key: + = Stimulation; - = Inhibition; details: Ottaway+ 83; cited from earlier work
[21] = system: bronchi; details: Palmer+ 86; cited from earlier work
[22] = system: colon; design: key: + = Stimulation; - = Inhibition; details: cited from earlier work
[23] = system: lumbo-sacral spinal cord; details: administered to rats to the intrathecal space of the lumbo-sacral spinal cord; Komisaruk et al. 1988; cited from earlier work
[24] = system: uterus; details: Morris+ 89; cited from earlier work
[25] = system: colonic cells; design: key: + = Stimulation; - = Inhibition; details: McCabe+ 88; cited from earlier work
[26] = system: pancreatic cells; design: key: + = Stimulation; - = Inhibition; details: Robberecht+ 76; cited from earlier work
[27] = reported; cited from earlier work
[28] = system: pit. tumor cells; details: Westendorf+ 83; cited from earlier work
[29] = intrathecal injection; Cridland and Henry 1988; cited from earlier work
[30] = system: genital tract; design: key: + = Stimulation; - = Inhibition; details: Fahrenkrug+ 88; cited from earlier work
[31] = system: spinal cord cult.; design: key: + = Stimulation; - = Inhibition; details: Brenneman 88; cited from earlier work
[32] = system: ovarian granulosa; design: key: + = Stimulation; - = Inhibition; details: cited from earlier work
[33] = system: cortical slices; design: key: + = Stimulation; - = Inhibition; details: Magistretti+ 84; cited from earlier work
[34] = system: female Sprague-Dawley rats; test: Vocalization threshold to tail shock; type: in vivo, rat; details: intrathecal; for elevation in vocalization threshold: 30 min. postinjection; for vocalization threshold compared with saline group (significance): sulfate
From the text: Electrical stimulation (100 millisecond trains of 60 Hz square waveform at three-second intervals ranging from 0.01 to 0.4 mA in 0.01 mA increments) is applied (under computer control using a Commodore 64C computer and a Coulbourn constant current stimulator) to the surface of the tail via two lengths of blunt 18-ga stainless steel tubing coated with conductive gel (Spectra 360 Electrode Gel; Parker Laboratories Inc., Orange, N.J. 07050) and taped to the midsection of the tail 2 cm apart, parallel to the axis of the tail. An ascending/descending method of limits is used to estimate the threshold (in mA) to induce vocalization. In this method, an observer records whether or not vocalization occurs in response to each shock. If an animal vocalizes at a particular current intensity, the current intensity is then reduced stepwise until a shock no longer elicits a vocalization response. Then the current is increased stepwise until the animal again vocalizes, and so on, until all mA values for 6 such inversions are obtained. The vocalization threshold estimate is the mean of these 6 values.
The vocalization threshold to tail shock increased by 70% over baseline (pre-injection) levels by the first minute after the intrathecal injection of VIP 11-28 (molar quantity equivalent to 25 mcg VIP 11-28, hereafter referred to as 25 mcge [microgram equivalents]).
Female Sprague-Dawley rats weighing 250 g are used in the testing. The rats are ovariectomized and implanted surgically through the cisterna magna with an intrathecal catheter (i.t.) (PE 10 polyethylene tubing 7.5 cm length) at least 1 week before testing.

[35] = system: smooth muscle; test: Smooth muscle relaxant action
[36] = system: female Sprague-Dawley rats; test: Vocalization threshold to tail shock; type: in vivo, rat; details: intravenous, 3 mg

CC[C@H](C)[C@H](NC(=O)[C@H](CO)NC(=O)[C@H](CC(N)=O)NC(=O)[C@H](CC(C)C)NC(=O)[C@H](Cc1ccc(O)cc1)NC(=O)[C@H](CCCCN)NC(=O)[C@H](CCCCN)NC(=O)[C@@H](NC(=O)[C@H](C)NC(=O)[C@H](CCSC)NC(=O)[C@H](CCC(N)=O)NC(=O)[C@H](CCCCN)NC(=O)[C@H](CCCNC(=N)N)NC(=O)[C@H](CC(C)C)NC(=O)[C@H](CCCNC(=N)N)NC(=O)[C@@H](NC(=O)[C@H](Cc1ccc(O)cc1)NC(=O)[C@H](CC(N)=O)NC(=O)[C@H](CC(=O)O)NC(=O)[C@@H](NC(=O)[C@H](Cc1ccccc1)NC(=O)[C@@H](NC(=O)[C@H](C)NC(=O)[C@H](CC(=O)O)NC(=O)[C@H](CO)NC(=O)[C@@H](N)Cc1c[nH]cn1)C(C)C)[C@@H](C)O)[C@@H](C)O)C(C)C)C(=O)N[C@@H](CC(C)C)C(=O)N[C@@H](CC(N)=O)C(N)=O [VIP 1-28, NH--His--Ser--Asp--Ala--Val--Phe--Thr--Asp--Asn--Tyr--Thr--Arg--Leu--Arg--Lys--Gln--Met--Ala--Val--Lys--Lys--Tyr--Leu--Asn--Ser--Ile--Leu--Asn--Amide]
cyclic AMP [1]: +
hair growth [2]: +
lubrication [3]: +
renin secretion rate [4]: +
neuronal hyperpolarization [5]: neuronal hyperpolarization
amylase release [6]: +
REM sleep [7]: +
amylase release [8]: +
TFL elevation compared with saline group (significance) ([9]; intrathecal, VIP 1-28 group): approached, but did not reach, significance
blood flow [10]: +
analgesia through the central nervous system [11]: induced analgesia
smooth muscle relaxation [12]: smooth muscle relaxation
vasodilation [13]: 30
smooth muscle relaxation [14]: smooth muscle relaxation
somatostatin release [15]: +
adenylate cyclase [16]: +
cyclic Amp [17]: +
pepsinogen secretion [17]: +
cardiac output ([18]; Mutt 75): +
hyperglycemia ([18]; Mutt 75): hyperglycemia
respiratory stimulation ([18]; Mutt 75): respiratory stimulation
arterial blood flow ([18]; Mutt+ 77): +
blood pressure ([18]; Mutt+ 77): -
tear secretion ([19]; Gilbard+ 88): +
intraocular pressure ([19]; Mittag+ 87): -
cyclic AMP [20]: +
bronchodilation [21]: bronchodilation
smooth muscle motility ([22]; Said, Mutt+ 77): +
water flow ([22]; Waldman+ 77): +
analgesia through the central nervous system [23]: induced analgesia
arterial relaxation [24]: arterial relaxation
chloride secretion [25]: +
cyclic AMP [26]: +
systemic vasodilator activity [27]: has systemic vasodilator activity
ACTH, endorphin release [28]: ACTH, endorphin release
reaction time on a nociceptive test [29]: reduced reaction time
blood flow [30]: +
neuronal survival [31]: +
androgen secretion ([32]; Johnson 88): +
progesterone secretion ([32]; Johnson+ 88): +
glycogenolypis [33]: +

CN1CC[C@]23c4c5ccc(O)c4O[C@H]2[C@@H](O)C=C[C@H]3[C@H]1C5.O=S(=O)(O)O [morphine sulfate]
TFL compared with other groups (significance) ([9]; intrathecal, 5 mcg): significantly greater than saline at 15 min. and all other groups except morphine 25 mcg at all points from 30-60 min.
TFL compared with other groups (significance) ([9]; intrathecal, 25 mcg, p<0.05, two-tailed, Duncan test): significantly greater than all other groups at all points from 5-60 minutes
elevation in vocalization threshold ([34]; 25 mcg): 60%
vocalization threshold compared with saline group (significance) ([34]; 25 mcg, p<0.05, listed as morphine): significantly greater than the saline group
vocalization threshold compared with saline group (significance) ([34]; 25 mcg, p<0.05): significant elevation in vocalization threshold over the saline group at 20 and 30 min. post injection

TRLRKQMAVKKYLNSILN-NH2 [VIP 11-28, NH--Thr--Arg--Leu--Arg--Lys--Gln--Met--Ala--Val--Lys--Lys--Tyr--Leu--Asn--Ser--Ile--Leu--Asn--Amide]
TFL change compared with saline group (significance) ([9]; intrathecal, 25 mcge, p<0.05, two-tailed, multiple t-test): significantly greater than the saline group
mean TFL elevation, maximum, greater than the preinjection baseline level ([9]; intravenous (jugular vein catheter), 3 mg, 1 minute after injection, n=10): 80%
TFL compared with saline control group (significance) ([9]; intravenous, 3 mg, p<0.05, 2-tailed, Scheffe test): significantly greater effect than saline
smooth muscle relaxant action [35]: has shown smooth muscle relaxant action
time of maximum vocalization threshold after injection [36]: 1 min
vocalization threshold compared with saline (significance) [36]: approached, but did not reach, significance; also recorded: approaching, but not attaining, significance
elevation in vocalization threshold ([34]; 25 mcge): 170%
vocalization threshold to tail shock, increase over baseline (pre-injection) levels ([34]; 25 mcge, first minute after injection, n=10): 70%
persistence of the significant threshold elevating effect ([34]; 25 mcge, vocalization threshold): ≥ 60 min
vocalization threshold elevation compared with 25 mcg morphine sulfate (significance) ([34]; 25 mcge, at 1-15, 30 and 60 min. postinjection, p<0.05): significantly greater than both the morphine and the saline groups; also recorded: significantly more effective in elevating vocalization thresholds than 25 mcg morphine sulfate
vocalization threshold compared with saline control group (significance) ([34]; 25 mcge, p<0.05, 2-tailed, multiple t-tests): elevated over the saline control group levels at each test for the duration of the 60 min. test period
persistence of threshold elevating effect longer than analgesia produced by VIP 1-28 ([34]; vocalization threshold): at least 30 min.
onset of analgesia post i.t. injection ([34]; vocalization threshold test): 1 min
